Patent US20250120958A1, “Treatment of GM2 Gangliosidosis” (Azafaros B.V., priority 2022, published 2025)
pIC50: −log10 of the molar value. “Also recorded” adds a separate entry of the source. Like-named read-outs stand apart in the source and are kept apart here.

What was measured:
GlcCer C16:0 and C18:0 = assay: Target engagement: GlcCer C16:0 and C18:0 in the cerebellum; format: in vivo, mouse; conditions: treated vs untreated heterozygous or Hexb (−/−) mice
Source text: Consistent with this action, the inhibition of GbA2 should result in an increase in GlcCer species in the brain where GbA2 plays a significant role.

[1] = test system: Sandhoff mouse model (Hexb (−/−)); assay: Survival study in Sandhoff mouse model; format: in vivo; conditions: Hexb (−/−) mice
Source text: (strain: B6; 129S4-Hexbtm1Rlp/J). The mouse line was maintained by crossing homozygous −/− males with heterozygous females (generating litters with 50%−/− and 50%+/−) under specific pathogen-free conditions. All mice were housed in individual, ventilated cages (IVCs) with 12-h light/dark cycles with food and water ad libitum. Young-adult mice of the same genetic C57BL/6 background were from Jackson Laboratories. Breeding of Hexb mutants will target needs of the “Long-term” cohorts first, followed by the “16-week” biomarker study.
Cohort 1: There were a total of 6 dose groups and 2 vehicle groups using both Hexb+/− and Hexb−/− animals. […] Dosing occurred daily from day 30 to day 170, unless the animal was prematurely euthanized per protocol.
A subsequent study to explore lower doses was also performed (in the same manner as in Example 2) in which doses of 0.02, 0.06, 0.2 and 0.5 mg/kg/day were used. […] It is unclear why the 0.06 mg/kg/day had less survival as formulations were checked and confirmed accurate dosing (internal data).

[2] = test system: GFAP (Glial fibrillary acidic protein); assay: GFAP immunofluorescence in brain sections; format: in vivo, mouse; conditions: for GFAP staining, treated vs vehicle: midsections
Source text: Brain samples were collected, rinsed with saline and blotted dry. Samples were fixed in 4% PFA for immunohistochemical analyses; frozen and kept for gene expression and molecular biology analyses; and used frozen for LC-MS/MS analysis.
GFAP (Glial fibrillary acidic protein) a class-III intermediate filament protein, is a cell-specific marker that, during the development of the central nervous system, distinguishes astrocytes from other glial cells. Intermediate filaments form networks that provide support and strength to cells. Several molecules of glial fibrillary acidic protein bind together to form the type of intermediate filament found in astroglial cells. Astroglial cells support and nourish cells in the brain and spinal cord. If brain or spinal cord cells are injured through trauma or disease, astroglial cells react by rapidly producing more glial fibrillary acidic protein.

GCS = target: T1, GCS (Homo sapiens, UniProt Q16739); assay: In vitro potency on GCS (glucosylceramide synthase); format: biochemical
T1 sequence (Q16739 1-394): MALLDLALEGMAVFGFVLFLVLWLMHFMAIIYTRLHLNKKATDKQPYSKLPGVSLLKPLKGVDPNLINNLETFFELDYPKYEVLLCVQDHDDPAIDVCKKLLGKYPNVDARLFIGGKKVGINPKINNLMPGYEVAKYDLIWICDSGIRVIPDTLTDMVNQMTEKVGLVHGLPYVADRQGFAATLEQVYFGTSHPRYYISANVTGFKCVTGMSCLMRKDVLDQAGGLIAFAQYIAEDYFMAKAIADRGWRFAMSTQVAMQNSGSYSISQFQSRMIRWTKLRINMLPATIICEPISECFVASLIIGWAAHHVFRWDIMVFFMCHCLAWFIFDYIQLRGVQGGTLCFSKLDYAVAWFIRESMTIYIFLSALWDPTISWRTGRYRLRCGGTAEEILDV

[3] = test system: Sandhoff mouse model (Hexb (−/−)); assay: Rotarod (RR) test in Sandhoff mice; format: in vivo; conditions: 16 weeks, 0.5-6 mg/kg/day
Experimental: In the ROT, all animals were on the day before the first testing, habituated to the device for 5 min using a continuous rotation speed of 4-40 rotations per minute (rpm). For the subsequent experiments, no prior habituation was conducted. In the actual testing procedure, the test was conducted over 5 min with an accelerating rotation of 4-40 rpm. Time was measured until the animals fell from the rod. Up to 5 animals could be tested simultaneously.
(§1) Behavioral assessments, including open field tests (OFT, ActiMot, TSE systems) and rotarod (RR, IITC Life Sciences), were also performed. The OFT assessed motor skills by placing a mouse into a square box with high walls for 5 minutes to record several parameters, including distance travelled (centimetres) and resting time in zone (seconds). Motor coordination of mice was assessed using a RR apparatus as per previously published protocol (Osmon, Vyas et al. 2018). Briefly, mice were placed on moving cylinders that accelerated from 4 to 40 rotations per minute (rpm) over 5 minutes. Each mouse was allowed three trials on the RR with a minimum of 10 minutes for rest in-between assessments. The highest number achieved was recorded for each of the following parameters: latency to fall, end rotations per minute and distance travelled.

[4] = Plasma pharmacokinetics after 16 weeks of once daily administration (LC-MS/MS); format: in vivo, mouse
Experimental: At the end of the defined treatment period, mice were humanely euthanized by transcardial perfusion with Ringer solution after C02 asphyxiation. […]. Before perfusion, blood samples were collected via cardiac puncture into K2EDTA tubes and stored on wet ice. Whole blood was processed to plasma by centrifugation (3000 g for 10 minutes at 5° C.) within 30 min of collection and stored at −75° C.
Unless otherwise stated, the methodology and sample collection were performed as in Example 2.

[5] = test system: Sandhoff mouse model (Hexb (−/−)); assay: Open field test (OFT) in Sandhoff mice; format: in vivo; conditions: Hexb (−/−) mice vs vehicle, 0.5-6 mg/kg/day
Experimental: The OFT was conducted using a 40×40 cm sized apparatus in a quiet room and constant lighting conditions. Trial duration was 5 min. All trials were videotaped and later analysed using the tracking software Smart® Version 3.0.05. Measures included the average locomotion speed, walked distance and time spent in outer and inner zones of the field.
as §1

OC[C@H]1[C@@H](O)[C@H](O)[C@@H](O)CN1CCCCCOCc1ccc(-c2ccccc2)c(F)c1 [AZ-3102]
increase in GlcCer C16:0 (GlcCer C16:0 and C18:0): approximately 10 fold
increase in GlcCer C18:0 (GlcCer C16:0 and C18:0): approximately 10 fold
median survival ([1]; 0.02 mg/kg/day): 120 days
median survival ([1]; 0.06 mg/kg/day): 116 days
median survival ([1]; 0.2 mg/kg/day): 133 days
median survival ([1]; 0.5 mg/kg/day): 138 days
increase of average median survival ([1]; 0.5-6 mg/kg/day oral gavage daily, vs vehicle (115 days)): 26 days
minimal effective dose on survival ([1]; once daily gavage): 0.2 mg/kg/day
increase in survival / life expectancy ([1]; treated vs vehicle/untreated): 22%
GFAP immunofluorescence, Mean ([2]; caudal section of the brain, Het (Hexb+/−), Female): 508.99
GFAP immunofluorescence, Mean ([2]; caudal section of the brain, Het (Hexb+/−), Male): 425.10
GFAP immunofluorescence, Mean ([2]; caudal section of the brain, KO (Hexb−/−), Female): 1656.84
GFAP immunofluorescence, Mean ([2]; caudal section of the brain, KO (Hexb−/−), Male): 1762.82
GFAP immunofluorescence, Mean ([2]; midsection of the brain, Het (Hexb+/−), Female): 298.81
GFAP immunofluorescence, Mean ([2]; midsection of the brain, Het (Hexb+/−), Male): 395.99
GFAP immunofluorescence, Mean ([2]; midsection of the brain, KO (Hexb−/−), Female): 747.75
GFAP immunofluorescence, Mean ([2]; midsection of the brain, KO (Hexb−/−), Male): 866.38
GFAP staining, treated vs vehicle ([2]; Hexb−/− females): statistical decrease
GFAP staining, treated vs vehicle ([2]; Hexb−/− males): trend to having a decrease
inhibitory activity on GCS (GCS): low nM
pIC50 (GCS; in vitro potency): 8.60
RR assessments, effect of treatment vs vehicle [3]: significant at all dose levels; also recorded: significantly improved
Cmax difference between lowest and highest dose ([4]; 6 vs 0.5 mg/kg/day): approximately 7 fold
Cmax ([4]; Hexb (−/−) (Sandhoff mice), mouse, oral, plasma, 0.5 to 6 mg/kg/day, steady state, read-out: Cmax, range over doses): 100 to 674 ng/mL
AUC(0-t) ([4]; Hexb (−/−) (Sandhoff mice), mouse, oral, plasma, 0.5 to 6 mg/kg/day, steady state, read-out: mean AUC0-24, range over doses): 417 to 3610 ng·h/mL
AUC(0-t) ([4]; Hexb (−/−) (Sandhoff model), mouse, plasma, po, Sand A, Hexb (−/−), 6 mg/kg/day, 16 weeks once daily, read-out: AUC0-24): 3610 ng·h/mL
Cmax ([4]; Hexb (−/−) (Sandhoff model), mouse, plasma, po, Sand A, Hexb (−/−), 6 mg/kg/day, 16 weeks once daily, read-out: Cmax): 674 ng/mL
AUC(0-t) ([4]; Hexb (−/−) (Sandhoff model), mouse, plasma, po, Sand B, Hexb (−/−), 3 mg/kg/day, 16 weeks once daily, read-out: AUC0-24): 1980 ng·h/mL
Cmax ([4]; Hexb (−/−) (Sandhoff model), mouse, plasma, po, Sand B, Hexb (−/−), 3 mg/kg/day, 16 weeks once daily, read-out: Cmax): 446 ng/mL
AUC(0-t) ([4]; Hexb (−/−) (Sandhoff model), mouse, plasma, po, Sand D, Hexb (−/−), 1.5 mg/kg/day, 16 weeks once daily, read-out: AUC0-24): 987 ng·h/mL
Cmax ([4]; Hexb (−/−) (Sandhoff model), mouse, plasma, po, Sand D, Hexb (−/−), 1.5 mg/kg/day, 16 weeks once daily, read-out: Cmax): 159 ng/mL
AUC(0-t) ([4]; Hexb (−/−) (Sandhoff model), mouse, plasma, po, Sand E, Hexb (−/−), 0.5 mg/kg/day, 16 weeks once daily, read-out: AUC0-24): 417 ng·h/mL
Cmax ([4]; Hexb (−/−) (Sandhoff model), mouse, plasma, po, Sand E, Hexb (−/−), 0.5 mg/kg/day, 16 weeks once daily, read-out: Cmax): 100 ng/mL
concentration at 24 h ([4]; Hexb (−/−) and Hexb (+/−), mouse, plasma, oral, all doses): ~1 ng/mL
Cmax/D ([4]; Sand E, Hexb (−/−), 0.5 mg/kg/day): 200 (ng/mL)/(mg/kg)
AUC(0-t) ([4]; mouse, plasma, po, Het B, Hexb (+/−), 3 mg/kg/day, 16 weeks once daily, read-out: AUC0-24): 1960 ng·h/mL
Cmax ([4]; mouse, plasma, po, Het B, Hexb (+/−), 3 mg/kg/day, 16 weeks once daily, read-out: Cmax): 370 ng/mL
OFT assessments (Total Distance Travelled, Resting Time in Zone) [5]: significantly improved
